Tests used:
P-STAT3 = assay: Western blot assay, P-STAT3; type: cell-based, human; conditions: HepG-2, 24 h, dose-dependent
Procedure: (§1) HepG-2 cells were treated with compound 10b for 24 h, and the cell lysates were collected. Then, the total protein was separated by SDS-PAGE and transferred to PVDF membranes. The membranes were incubated with primary antibodies (1:1000) at 4 °C overnight. After being washed with PBST (PBS + 0.5% Tween 20) 5 times, the membranes were incubated with HRP-conjugated secondary antibodies (1:5000 dilution) for 2 h at room temperature. The membranes were then washed with PBST 5 times and the protein blots were detected by ECL chemiluminescence.

[1] = system: L-O2 human normal liver cells; assay: MTT assay, toxicity against L-O2 normal cells; type: cell-based; conditions: 72 h incubation, mean of three independent experiments
Procedure: (§2) HepG-2 human hepatocellular carcinoma cells and L-O2 human normal liver cells were maintained in DMEM culture medium supplemented with 10% FBS at 37 °C under a humidified atmosphere with 5% CO2.
(§3) HepG-2 and L-O2 cells in logarithmic growth phase were seeded into a 96-well plate at 5 × 10^3/well/200 µL. After 12 h, compounds at different concentrations were added and incubated for 72 h at 37 °C, 5% CO2. Then, 20 µL MTT (5 mg/mL) was added into each well and incubated for 4 h. The supernatant was discarded, and the precipitate was dissolved with DMSO. The absorbance of the optical density (OD) at 570 nm was detected using a microplate reader and the IC50 was calculated with GraphPad Prism 5.

STAT3 = assay: Western blot assay, STAT3; type: cell-based, human; conditions: HepG-2, 24 h, different concentrations
Procedure: as §1

Bcl-2 = assay: Western blot assay, Bcl-2; type: cell-based, human; conditions: HepG-2, 24 h
Procedure: as §1

HepG-2 cells = assay: Cell apoptosis assay, Annexin-V/PI flow cytometry; type: cell-based, human; conditions: HepG-2, 48 h, 0, 1 and 2 µM
Procedure: HepG-2 cells were seeded into a 24-well plate with 5 × 10^4/well/1 mL. After 12 h, cells were treated with compound 10b at different concentrations for 48 h. The cells were collected, washed with cold PBS, and stained with Annexin-V/PI according to the manufacturer’s instructions. Then, the cells were analyzed with flow cytometry.

Bax = assay: Western blot assay, Bax; type: cell-based, human; conditions: HepG-2, 24 h
Procedure: as §1

Bim = assay: Western blot assay, Bim; type: cell-based, human; conditions: HepG-2, 24 h
Procedure: as §1

Balb/C mice = assay: In vivo acute toxicity assay; conditions: intravenous injection; for percentage of death: three mice
Procedure: To evaluate the toxicity of compound 10b, an acute toxicity assay was performed using Balb/C mice.
Five-week-old Balb/C mice were purchased from the Chinese Academy of Sciences and maintained under specific pathogen free (SPF) conditions. […] The control group mice were treated with vehicle buffer intravenously. […] The compound 10b group mice were treated with compound 10b at doses of 2 mg/kg, 5 mg/kg, 10 mg/kg, 20 mg/kg, and 50 mg/kg respectively (three mice each dose). The clinical symptoms, deaths, and body weight were observed and recorded.

[2] = system: HepG-2 human hepatocellular carcinoma cells; assay: MTT assay, proliferation of HepG-2 cells; type: cell-based; conditions: mean of three independent experiments
Procedure: as §2, §3

caspase 3 = assay: Western blot assay, caspase 3; type: cell-based, human; conditions: HepG-2, 24 h
Procedure: as §1

[3] = Homo sapiens, HepG2, 72 h incubation

## CC(=O)OC(C)(C)/C=C/C(=O)[C@](C)(O)C1[C@H](OC(=O)CCC(=O)OCCCOc2no[n+]([O-])c2S(=O)(=O)c2ccccc2)C[C@@]2(C)C3CC=C4C(CC(O)C(=O)C4(C)C)[C@]3(C)C(=O)C[C@]12C (stereo partly drawn) [Compound 10b, 4-(3-((4-(((9R,13R,14S,16R)-17-((R,E)-6-Acetoxy-2-hydroxy-6-methyl-3-oxohept-4-en-2-yl)-2-hydroxy-4,4,9,13,14-pentamethyl-3,11-dioxo-2,3,4,7,8,9,10,11,12,13,14,15,16,17-tetradecahydro-1H-cyclopenta[a]phenanthren-16-yl)oxy)-4-oxobutanoyl)oxy)propoxy)-3-(phenylsulfonyl)-1,2,5-oxadiazole 2-oxide]
P-STAT3
  level of P-STAT3: clearly inhibited
[1]; Homo sapiens
  IC50: 2970 ± 230 nM
STAT3
  total expression of STAT3: remained little changed
Bcl-2
  expression of Bcl-2: substantially diminished
HepG-2 cells
  induction of cell apoptosis: significantly induced cell apoptosis in a dose-dependent manner
Bax
  expression of Bax: strongly increased
Bim
  expression of Bim: strongly increased
Balb/C mice; 2 mg/kg
  percentage of death: 0/3
Balb/C mice; 5 mg/kg
  percentage of death: 0/3
Balb/C mice; 10 mg/kg
  percentage of death: 0/3
Balb/C mice; 20 mg/kg
  percentage of death: 0/3
Balb/C mice; 50 mg/kg
  percentage of death: 1/3
Balb/C mice; different doses (2-50 mg/kg), compared to the vehicle group
  body weight change: did not change
[2]; [3]
  IC50: 630 ± 290 nM
Caspase 3
  level of caspase 3: decreased

## CC(=O)OC(C)(C)/C=C/C(=O)[C@](C)(O)C1[C@H](OC(=O)CCC(=O)OCCCCCCCCCCOc2no[n+]([O-])c2S(=O)(=O)c2ccccc2)C[C@@]2(C)C3CC=C4C(CC(O)C(=O)C4(C)C)[C@]3(C)C(=O)C[C@]12C (stereo partly drawn) [Compound 10i, 4-((10-((4-(((9R,13R,14S,16R)-17-((R,E)-6-Acetoxy-2-hydroxy-6-methyl-3-oxohept-4-en-2-yl)-2-hydroxy-4,4,9,13,14-pentamethyl-3,11-dioxo-2,3,4,7,8,9,10,11,12,13,14,15,16,17-tetradecahydro-1H-cyclopenta[a]phenanthren-16-yl)oxy)-4-oxobutanoyl)oxy)decyl)oxy)-3-(phenylsulfonyl)-1,2,5-oxadiazole 2-oxide]
[1]; Homo sapiens
  IC50: 3270 ± 430 nM
[2]; [3]
  IC50: 6920 ± 750 nM

## CC(=O)OC(C)(C)/C=C/C(=O)[C@](C)(O)C1[C@H](OC(=O)CCC(=O)OCCCCCCCCCCCOc2no[n+]([O-])c2S(=O)(=O)c2ccccc2)C[C@@]2(C)C3CC=C4C(CC(O)C(=O)C4(C)C)[C@]3(C)C(=O)C[C@]12C (stereo partly drawn) [Compound 10j, 4-((11-((4-(((9R,13R,14S,16R)-17-((R,E)-6-Acetoxy-2-hydroxy-6-methyl-3-oxohept-4-en-2-yl)-2-hydroxy-4,4,9,13,14-pentamethyl-3,11-dioxo-2,3,4,7,8,9,10,11,12,13,14,15,16,17-tetradecahydro-1H-cyclopenta[a]phenanthren-16-yl)oxy)-4-oxobutanoyl)oxy)undecyl)oxy)-3-(phenylsulfonyl)-1,2,5-oxadiazole 2-oxide]
[1]; Homo sapiens
  IC50: 6690 ± 3950 nM
[2]; [3]
  IC50: 10300 ± 1110 nM

## CC(=O)OC(C)(C)/C=C/C(=O)[C@](C)(O)C1[C@H](OC(=O)CCC(=O)OCCCCCCCCCCCCOc2no[n+]([O-])c2S(=O)(=O)c2ccccc2)C[C@@]2(C)C3CC=C4C(CC(O)C(=O)C4(C)C)[C@]3(C)C(=O)C[C@]12C (stereo partly drawn) [Compound 10k, 4-((12-((4-(((9R,13R,14S,16R)-17-((R,E)-6-Acetoxy-2-hydroxy-6-methyl-3-oxohept-4-en-2-yl)-2-hydroxy-4,4,9,13,14-pentamethyl-3,11-dioxo-2,3,4,7,8,9,10,11,12,13,14,15,16,17-tetradecahydro-1H-cyclopenta[a]phenanthren-16-yl)oxy)-4-oxobutanoyl)oxy)dodecyl)oxy)-3-(phenylsulfonyl)-1,2,5-oxadiazole 2-oxide]
[1]; Homo sapiens
  IC50: > 20000 nM
[2]; [3]
  IC50: > 20000 nM

## CC(=O)OC(C)(C)/C=C/C(=O)[C@](C)(O)C1[C@H](OC(=O)CCC(=O)OC/C=C/COc2no[n+]([O-])c2S(=O)(=O)c2ccccc2)C[C@@]2(C)C3CC=C4C(CC(O)C(=O)C4(C)C)[C@]3(C)C(=O)C[C@]12C (stereo partly drawn) [Compound 10l, 4-(((E)-4-((4-(((9R,13R,14S,16R)-17-((R,E)-6-Acetoxy-2-hydroxy-6-methyl-3-oxohept-4-en-2-yl)-2-hydroxy-4,4,9,13,14-pentamethyl-3,11-dioxo-2,3,4,7,8,9,10,11,12,13,14,15,16,17-tetradecahydro-1H-cyclopenta[a]phenanthren-16-yl)oxy)-4-oxobutanoyl)oxy)but-2-en-1-yl)oxy)-3-(phenylsulfonyl)-1,2,5-oxadiazole 2-oxide]
[1]; Homo sapiens
  IC50: 2720 ± 380 nM
[2]; [3]
  IC50: 1010 ± 400 nM

## CC(=O)OC(C)(C)/C=C/C(=O)[C@](C)(O)C1[C@H](OC(=O)CCC(=O)OCC#CCOc2no[n+]([O-])c2S(=O)(=O)c2ccccc2)C[C@@]2(C)C3CC=C4C(CC(O)C(=O)C4(C)C)[C@]3(C)C(=O)C[C@]12C (stereo partly drawn) [Compound 10m, 4-((4-((4-(((9R,13R,14S,16R)-17-((R,E)-6-Acetoxy-2-hydroxy-6-methyl-3-oxohept-4-en-2-yl)-2-hydroxy-4,4,9,13,14-pentamethyl-3,11-dioxo-2,3,4,7,8,9,10,11,12,13,14,15,16,17-tetradecahydro-1H-cyclopenta[a]phenanthren-16-yl)oxy)-4-oxobutanoyl)oxy)but-2-yn-1-yl)oxy)-3-(phenylsulfonyl)-1,2,5-oxadiazole 2-oxide]
[1]; Homo sapiens
  IC50: 2940 ± 90 nM
[2]; [3]
  IC50: 1350 ± 100 nM

## CC(=O)OC(C)(C)/C=C/C(=O)[C@](C)(O)C1[C@H](OC(=O)CCC(=O)OCC(C)(C)COc2no[n+]([O-])c2S(=O)(=O)c2ccccc2)C[C@@]2(C)C3CC=C4C(CC(O)C(=O)C4(C)C)[C@]3(C)C(=O)C[C@]12C (stereo partly drawn) [Compound 10n, 4-(3-((4-(((9R,13R,14S,16R)-17-((R,E)-6-Acetoxy-2-hydroxy-6-methyl-3-oxohept-4-en-2-yl)-2-hydroxy-4,4,9,13,14-pentamethyl-3,11-dioxo-2,3,4,7,8,9,10,11,12,13,14,15,16,17-tetradecahydro-1H-cyclopenta[a]phenanthren-16-yl)oxy)-4-oxobutanoyl)oxy)-2,2-dimethylpropoxy)-3-(phenylsulfonyl)-1,2,5-oxadiazole 2-oxide]
[1]; Homo sapiens
  IC50: 3310 ± 180 nM
[2]; [3]
  IC50: 1110 ± 220 nM

## CC(=O)OC(C)(C)/C=C/C(=O)[C@](C)(O)C1[C@H](OC(=O)CCC(=O)OCc2ccc(COc3no[n+]([O-])c3S(=O)(=O)c3ccccc3)cc2)C[C@@]2(C)C3CC=C4C(CC(O)C(=O)C4(C)C)[C@]3(C)C(=O)C[C@]12C (stereo partly drawn) [Compound 10o, 4-((4-(((4-(((9R,13R,14S,16R)-17-((R,E)-6-Acetoxy-2-hydroxy-6-methyl-3-oxohept-4-en-2-yl)-2-hydroxy-4,4,9,13,14-pentamethyl-3,11-dioxo-2,3,4,7,8,9,10,11,12,13,14,15,16,17-tetradecahydro-1H-cyclopenta[a]phenanthren-16-yl)oxy)-4-oxobutanoyl)oxy)methyl)benzyl)oxy)-3-(phenylsulfonyl)-1,2,5-oxadiazole 2-oxide]
[1]; Homo sapiens
  IC50: 3000 ± 260 nM
[2]; [3]
  IC50: 1020 ± 280 nM

## CC(=O)OC(C)(C)/C=C/C(=O)[C@](C)(O)C1[C@H](OC(=O)CCC(=O)O)C[C@@]2(C)C3CC=C4C(C[C@H](O)C(=O)C4(C)C)[C@]3(C)C(=O)C[C@]12C (stereo partly drawn) [Compound 11, 4-(((2S,9R,13R,14S,16R)-17-((R,E)-6-Acetoxy-2-hydroxy-6-methyl-3-oxohept-4-en-2-yl)-2-hydroxy-4,4,9,13,14-pentamethyl-3,11-dioxo-2,3,4,7,8,9,10,11,12,13,14,15,16,17-tetradecahydro-1H-cyclopenta[a]phenanthren-16-yl)oxy)-4-oxobutanoic acid]
[1]; Homo sapiens
  IC50: > 20000 nM
[2]; [3]
  IC50: > 20000 nM

## cucurbitacin B [Compound 1, reference compound]
[1]
  IC50: 19 ± 3 nM
[2]; 72 h incubation
  IC50: 60 ± 20 nM
